Structures can show the parent of a compound that is named as a salt.

For data set [1] the following is noted: 60° C., one hour (FIG. 3). How it is done: Seaweed Hydrolysis. […] The samples were heated to 60° C. Approximately 0.1 grams of seaweed was measured and added to each sample. The acid/seaweed mixtures were placed in an incubator set at 60° C. for one hour. At twenty minute intervals, 0.4 mL were taken from the samples and neutralized to a high pH (>10) with 0.6 mL of a concentrated aqueous NaOH solution.
Seaweed DNS Assay. To each of the neutralized mixtures, 0.2 mL of DNS solution (1% dinitrosalicyclic acid, 0.02% phenol, 0.25 M NaOH) was added. These samples were then placed in boiling water for approximately ten minutes until the brown color remained stable. The samples were then removed and 0.4 mL of a 40% potassium sodium tartrate solution was added to stabilize the color. The solutions were allowed to cool to room temperature and then the absorbance was recorded at 570 nm.

The conditions of data set [2]: for rate in hydrolyzing switch grass: 60° C., one hour (FIG. 4). How it is done: Switch Grass Hydrolysis. […] The samples were heated to 60° C. Approximately 0.1 grams of switch grass was measured and added to each sample. The acid/switch grass mixtures were placed in an incubator set at 60° C. for one hour. At 0, 10, 20, 40, and 60 minutes, 0.4 mL were taken from the samples and neutralized to a high pH (>10) with 0.6 mL of a concentrated aqueous NaOH solution.
Switch Grass DNS Assay. To each of the neutralized mixtures, 0.2 mL of DNS solution (1% dinitrosalicyclic acid, 0.02% phenol, 0.25 M NaOH) was added. These samples were then placed in boiling water for approximately ten minutes until the brown color remained stable. Then 0.2 mL of each sample was mixed with 0.2 mL of a 40% potassium sodium tartrate solution and 1 mL of deionized water. The solutions were allowed to cool to room temperature and then the absorbance was recorded at 570 nm.

Data set [3] in a line: Cellulose (carboxymethylcellulose) hydrolysis, DNS sugar assay. To be noted: carboxymethylcellulose (FIG. 2, FIG. 5). From the text:
Dinitrosalicyclic Acid Sugar Assay. The DNS sugar assay utilizes the reduction of dinitrosalicyclic acid by simple monosaccharides to create a change in color, respective the concentration of sugar in each sample (Rivers). A 1% dinitrosalicyclic acid solution was created with 0.25 M NaOH and […]. Another solution of 40% Sodium Potassium Tartrate was made to act as a color stabilizer to be added to the sample after the reaction. This procedure requires the experimental sample to be mixed with the DNS Assay solution and heated at approximately 100° C. for ten minutes. After the colorimetric reaction has occurred, the sodium potassium tartrate solution is added to stabilize the color change. The resulting color change can be measured using the wavelength of 570 nm.
Cellulose Hydrolysis. 5 mL of each acid was added to a glass container. Then, 0.1 grams of carboxymethylcellulose was slowly poured in to each sample. The containers were then capped and placed in a 60° C. incubator. At specific time intervals, 0.4 mL were taken and neutralized by 0.6 mL of a strong KOH solution to a pH above 10 in 1.5 mL microfuge tubes. Then 0.2 mL of the DNS Assay solution was added to each sample, which were then placed in a boiling water bath for ten minutes. […] The absorbance of the samples were then measured at 570 nm in a UV-Vis spectrophotometer and compared to a standard curve.

For `Cl` [6M HCl, hydrochloric acid, reference compound], the “rate in hydrolyzing seaweed” value in data set [1] is listed as “about the same rate”. Besides, in data set [2], the “rate in hydrolyzing switch grass” value is listed as “about the same rate” and the “pH change after switch grass hydrolysis” value is “increased”.
For the compound `NCC(=O)O` [6M Glycine—HCl, glycine hydrochloride], in data set [1], the “rate in hydrolyzing seaweed” value is given as “about the same rate”. Further, in data set [2], the “rate in hydrolyzing switch grass” value is recorded as “about the same rate” and the “pH change after switch grass hydrolysis” value was “lowered”. In data set [3], the hydrolysis rate entry is given as “equal to that of Oil Safe AR®”.

Source of the values: patent US9770045B2, “Preservation of animal feed and hydrolysis of polysaccharides using amino acids as salts or with acids” (priority 2015, dated 2017).
